# Measurements taken from US11034715B2, “Ectonucleotidase inhibitors and methods of use thereof” (Calithera Biosciences, Inc., priority 2016, dated 2021).
# Biological target: recombinant CD73 (Homo sapiens (Human), UniProt P21589)
# Test: Inhibition of the CD73 enzyme in vitro (soluble recombinant CD73, AMP, Malachite Green)
# Format: biochemical
# Conditions: recombinant CD73 0.5 nM, AMP 50 μM
# Method: The concentration of inorganic phosphate was determined using a phosphate standard curve.
# recombinant CD73, sequence (P21589 27-547): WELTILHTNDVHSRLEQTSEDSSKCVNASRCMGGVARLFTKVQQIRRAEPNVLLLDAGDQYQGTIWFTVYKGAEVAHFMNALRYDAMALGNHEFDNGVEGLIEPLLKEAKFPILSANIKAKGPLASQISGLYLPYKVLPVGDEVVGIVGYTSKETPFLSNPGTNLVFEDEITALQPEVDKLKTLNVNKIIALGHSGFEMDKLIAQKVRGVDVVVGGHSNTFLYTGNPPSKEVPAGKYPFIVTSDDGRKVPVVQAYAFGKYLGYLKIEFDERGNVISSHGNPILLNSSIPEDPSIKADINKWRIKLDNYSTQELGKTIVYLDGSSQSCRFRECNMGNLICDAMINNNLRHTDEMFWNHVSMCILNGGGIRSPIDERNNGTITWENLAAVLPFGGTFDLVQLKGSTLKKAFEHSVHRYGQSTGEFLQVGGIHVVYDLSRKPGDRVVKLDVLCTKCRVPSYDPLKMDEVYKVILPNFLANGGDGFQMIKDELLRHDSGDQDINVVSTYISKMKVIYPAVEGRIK
Compound,IC50 (class symbols (Table 4)) [nM],IC50 (30 minutes at room temperature) [nM]
CCOC(=O)C(Cc1ccccc1)(OC[C@H]1O[C@@H](n2cnc3c(NCc4ccccc4)nc(Cl)nc32)[C@H](O)[C@@H]1O)C(=O)OCC,< 1000,–
"CCOC(=O)C(Cc1ccc(OC(F)(F)F)cc1)(OC[C@H]1O[C@@H](n2cnc3c(N)nc(Cl)nc32)[C@@H](F)[C@@H]1O)C(=O)O (single isomer, unassigned) [compound 38]",–,686
"Nc1nc(Cl)nc2c1ncn2[C@@H]1O[C@H](COC(Cc2cccc(Oc3ccccc3)c2)(C(=O)O)C(=O)O)[C@@H](O)[C@@H]1F [compound 13, 2-(((2R,3R,4S,5R)-5-(6-amino-2-chloro-9H-purin-9-yl)-4-fluoro-3-hydroxytetrahydrofuran-2-yl)methoxy)-2-(3-phenoxybenzyl)malonic acid]",–,403
"Nc1nc(Cl)nc2c1ncn2[C@@H]1O[C@H](COC(Cc2cccc(C(F)(F)F)c2)(C(=O)O)C(=O)O)[C@@H](O)[C@@H]1F [compound 16, 2-(((2R,3R,4S,5R)-5-(6-amino-2-chloro-9H-purin-9-yl)-4-fluoro-3-hydroxytetrahydrofuran-2-yl)methoxy)-2-(3-(trifluoromethyl)benzyl)malonic acid]",–,257
"Nc1nc(Cl)nc2c1ncn2[C@@H]1O[C@H](COC(Cc2ccc3ccccc3c2)(C(=O)O)C(=O)O)[C@@H](O)[C@@H]1F [compound 17, 2-(((2R,3R,4S,5R)-5-(6-amino-2-chloro-9H-purin-9-yl)-4-fluoro-3-hydroxytetrahydrofuran-2-yl)methoxy)-2-(naphthalen-2-ylmethyl)malonic acid]",–,699
"CS(=O)(=O)c1ccc(CC(OC[C@H]2O[C@@H](n3cnc4c(N)nc(Cl)nc43)[C@@H](F)[C@@H]2O)(C(=O)O)C(=O)O)cc1 [compound 21, 2-(((2R,3R,4S,5R)-5-(6-amino-2-chloro-9H-purin-9-yl)-4-fluoro-3-hydroxytetrahydrofuran-2-yl)methoxy)-2-(4-(methylsulfonyl)benzyl) malonic acid]",–,193
"O=C(O)C(Cc1ccccc1)(OC[C@H]1O[C@@H](n2cnc3c(NCc4ccccc4)nc(Cl)nc32)[C@@H](F)[C@@H]1O)C(=O)O [compound 28, 2-benzyl-2-(((2R,3R,4S,5R)-5-(6-(benzylamino)-2-chloro-9H-purin-9-yl)-4-fluoro-3-hydroxytetrahydrofuran-2-yl)methoxy)malonic acid]",–,2650
"Nc1nc(Cl)nc2c1ncn2[C@@H]1O[C@H](COC(Cc2nnn[nH]2)(C(=O)O)C(=O)O)[C@@H](O)[C@@H]1F [compound 50, 2-((1H-tetrazol-5-yl)methyl)-2-(((2R,3R,4S,5R)-5-(6-amino-2-chloro-9H-purin-9-yl)-4-fluoro-3-hydroxytetrahydrofuran-2-yl)methoxy)malonic acid]",–,1910
"Nc1nc(Cl)nc2c1ncn2[C@@H]1O[C@H](COC(Cc2ccccc2)(C(=O)O)C(=O)O)[C@@H](N)[C@H]1O [compound 51, 2-(((2S,3S,4R,5R)-3-amino-5-(6-amino-2-chloro-9H-purin-9-yl)-4-hydroxytetrahydrofuran-2-yl)methoxy)-2-benzylmalonic acid]",–,1870
"Nc1nc(Cl)nc2c1ncn2[C@@H]1O[C@H](COC(Cc2cccc(-c3nnn[nH]3)c2)(C(=O)O)C(=O)O)[C@@H](O)[C@@H]1F [compound 53, 2-(3-(1H-tetrazol-5-yl)benzyl)-2-(((2R,3R,4S,5R)-5-(6-amino-2-chloro-9H-purin-9-yl)-4-fluoro-3-hydroxytetrahydrofuran-2-yl)methoxy)malonic acid]",–,448
"Nc1nc(Cl)nc2c1ncn2[C@@H]1O[C@H](COC(Cc2ccc(-c3nnn[nH]3)cc2)(C(=O)O)C(=O)O)[C@@H](O)[C@@H]1F [compound 54, 2-(4-(1H-tetrazol-5-yl)benzyl)-2-(((2R,3R,4S,5R)-5-(6-amino-2-chloro-9H-purin-9-yl)-4-fluoro-3-hydroxytetrahydro-furan-2-yl)methoxy)malonic acid]",–,220
"Nc1nc(Cl)nc2c1ncn2[C@@H]1O[C@H](COC(Cc2cccc(O)c2)(C(=O)O)C(=O)O)[C@@H](O)[C@@H]1F [compound 56, 2-(((2R,3R,4S,5R)-5-(6-amino-2-chloro-9H-purin-9-yl)-4-fluoro-3-hydroxytetrahydrofuran-2-yl)methoxy)-2-(3-hydroxybenzyl)malonic acid]",–,168
"Nc1nc(Cl)nc2c1ncn2[C@@H]1O[C@H](COC(Cc2ccc(C(=O)O)cc2F)(C(=O)O)C(=O)O)[C@@H](O)[C@@H]1F [compound 57, 2-(((2R,3R,4S,5R)-5-(6-amino-2-chloro-9H-purin-9-yl)-4-fluoro-3-hydroxytetrahydrofuran-2-yl)methoxy)-2-(4-carboxy-2-fluorobenzyl)malonic acid]",–,142
"Nc1nc(Cl)nc2c1ncn2[C@@H]1O[C@H](COC(Cc2ccc(C(=O)O)c(F)c2)(C(=O)O)C(=O)O)[C@@H](O)[C@@H]1F [compound 58, 2-(((2R,3R,4S,5R)-5-(6-amino-2-chloro-9H-purin-9-yl)-4-fluoro-3-hydroxytetrahydro-furan-2-yl)methoxy)-2-(4-carboxy-3-fluorobenzyl)malonic acid]",–,38
"Nc1nc(Cl)nc2c1ncn2[C@@H]1O[C@H](COC(Cc2ccc(C(F)(F)F)o2)(C(=O)O)C(=O)O)[C@@H](O)[C@@H]1F [compound 59, 2-(((2R,3R,4S,5R)-5-(6-amino-2-chloro-9H-purin-9-yl)-4-fluoro-3-hydroxytetrahydro-furan-2-yl)methoxy)-2-((5-(trifluoromethyl)-furan-2-yl)methyl)malonic acid]",–,439
"Nc1nc(Cl)nc2c1ncn2[C@@H]1O[C@H](COC(Cc2ccc(C(F)(F)F)c(F)c2)(C(=O)O)C(=O)O)[C@@H](O)[C@@H]1F [compound 60, 2-(((2R,3R,4S,5R)-5-(6-amino-2-chloro-9H-purin-9-yl)-4-fluoro-3-hydroxytetrahydro-furan-2-yl)methoxy)-2-(3-fluoro-4-(trifluoromethyl)benzyl) malonic acid]",–,51
"Nc1nc(Cl)nc2c1ncn2[C@@H]1O[C@H](COC(Cc2cc(-c3ccccc3)no2)(C(=O)O)C(=O)O)[C@@H](O)[C@@H]1F [compound 61, 2-(((2R,3R,4S,5R)-5-(6-amino-2-chloro-9H-purin-9-yl)-4-fluoro-3-hydroxytetrahydrofuran-2-yl)methoxy)-2-((3-phenylisoxazol-5-yl)methyl)malonic acid]",–,2250
"Nc1nc(Cl)nc2c1ncn2[C@@H]1O[C@H](COC(Cc2cnn(Cc3ccccc3)c2)(C(=O)O)C(=O)O)[C@@H](O)[C@@H]1F [compound 63, 2-(((2R,3R,4S,5R)-5-(6-amino-2-chloro-9H-purin-9-yl)-4-fluoro-3-hydroxytetrahydro-furan-2-yl)methoxy)-2-((1-benzyl-1H-pyrazol-4-yl)methyl)malonic acid]",–,1220
"Nc1nc(Cl)nc2c1ncn2[C@@H]1O[C@H](COC(Cc2cn[nH]c2)(C(=O)O)C(=O)O)[C@@H](O)[C@@H]1F [compound 64, 2-((1H-pyrazol-4-yl)methyl)-2-(((2R,3R,4S,5R)-5-(6-amino-2-chloro-9H-purin-9-yl)-4-fluoro-3-hydroxytetrahydrofuran-2-yl)methoxy)malonic acid]",–,860
"Nc1nc(Cl)nc2c1ncn2[C@@H]1O[C@H](COC(Cc2ccc(OCc3ccccc3)cc2)(C(=O)O)C(=O)O)[C@@H](O)[C@@H]1F [compound 65, 2-(((2R,3R,4S,5R)-5-(6-amino-2-chloro-9H-purin-9-yl)-4-fluoro-3-hydroxytetrahydrofuran-2-yl)methoxy)-2-(4-(benzyloxy)benzyl)malonic acid]",–,31
"Nc1nc(Cl)nc2c1ncn2[C@@H]1O[C@H](COC(Cc2ccc(O)cc2)(C(=O)O)C(=O)O)[C@@H](O)[C@@H]1F [compound 66, 2-(((2R,3R,4S,5R)-5-(6-amino-2-chloro-9H-purin-9-yl)-4-fluoro-3-hydroxytetrahydrofuran-2-yl)methoxy)-2-(4-hydroxybenzyl) malonic acid]",–,133
"Nc1nc(Cl)nc2c1ncn2[C@@H]1O[C@H](COC(Cc2csc(C(=O)O)n2)(C(=O)O)C(=O)O)[C@@H](O)[C@@H]1F [compound 68, 2-(((2R,3R,4S,5R)-5-(6-amino-2-chloro-9H-purin-9-yl)-4-fluoro-3-hydroxytetrahydro-furan-2-yl)methoxy)-2-((2-carboxythiazol-4-yl)methyl)malonic acid]",–,322
"Nc1nc(Cl)nc2c1ncn2[C@@H]1O[C@H](COC(Cc2csc(C(=O)O)c2)(C(=O)O)C(=O)O)[C@@H](O)[C@@H]1F [compound 76, 2-(((2R,3R,4S,5R)-5-(6-amino-2-chloro-9H-purin-9-yl)-4-fluoro-3-hydroxytetrahydro-furan-2-yl)methoxy)-2-((5-carboxythiophen-3-yl)methyl)malonic acid]",–,74
"Nc1nc(Cl)nc2c1ncn2[C@@H]1O[C@H](COC(Cc2ccc(C(=O)O)s2)(C(=O)O)C(=O)O)[C@@H](O)[C@@H]1F [compound 77, 2-(((2R,3R,4S,5R)-5-(6-amino-2-chloro-9H-purin-9-yl)-4-fluoro-3-hydroxytetrahydro-furan-2-yl)methoxy)-2-((5-carboxythiophen-2-yl)methyl)malonic acid]",–,255
"Nc1nc(Cl)nc2c1ncn2[C@@H]1O[C@H](COC(Cc2ccc(CC(=O)O)cc2)(C(=O)O)C(=O)O)[C@@H](O)[C@@H]1F [compound 78, 2-(((2R,3R,4S,5R)-5-(6-amino-2-chloro-9H-purin-9-yl)-4-fluoro-3-hydroxytetrahydrofuran-2-yl)methoxy)-2-(4-(carboxymethyl)benzyl) malonic acid]",–,86
"Nc1nc(Cl)nc2c1ncn2[C@@H]1O[C@H](COC(Cc2ccc(Cl)cc2F)(C(=O)O)C(=O)O)[C@@H](O)[C@@H]1F [compound 80, 2-(((2R,3R,4S,5R)-5-(6-amino-2-chloro-9H-purin-9-yl)-4-fluoro-3-hydroxytetrahydrofuran-2-yl)methoxy)-2-(4-chloro-2-fluorobenzyl)malonic acid]",–,44
"Nc1nc(Cl)nc2c1ncn2[C@@H]1O[C@H](COC(Cc2cc(C(=O)O)no2)(C(=O)O)C(=O)O)[C@@H](O)[C@@H]1F [compound 83, 2-(((2R,3R,4S,5R)-5-(6-amino-2-chloro-9H-purin-9-yl)-4-fluoro-3-hydroxytetrahydrofuran-2-yl)methoxy)-2-((3-carboxyisoxazol-5-yl)methyl)malonic acid]",–,6440
